According to patent publication US20160257997A1, “METHODS FOR WHOLE-CELL ANALYSIS OF GRAM-POSITIVE BACTERIA” (AdvanDx, Inc., priority 2009, published 2016):
Converted amounts (≈) assume the structure as drawn. Like-named read-outs stand apart in the source and are kept apart here.

Key:
S. aureus (MRSA) = test: cefoxitin Etest susceptibility testing (MIC), MRSA; assay type: cell-based, Staphylococcus aureus
S. aureus (MSSA) = test: cefoxitin Etest susceptibility testing (MIC), MSSA; assay type: cell-based, Staphylococcus aureus
MR-CNS = test: cefoxitin Etest susceptibility testing (MIC), MR-CNS; assay type: cell-based, coagulase-negative staphylococci
MS-CNS = test: cefoxitin Etest susceptibility testing (MIC), MS-CNS; assay type: cell-based, coagulase-negative staphylococci

MIC (S. aureus (MRSA); Staphylococcus aureus, ATCC 33591 / MRSA, cefoxitin Etest, Reference (ATCC 33591), SCCmec type III, read-out: MIC): ≥ 256 µg/mL
MIC (S. aureus (MRSA); Staphylococcus aureus, ATCC 33591 / MRSA, cefoxitin, strain 2, MRSA ATCC 33591, SCCmec III, read-out: MIC Etest): ≥ 256 µg/mL
MIC (S. aureus (MRSA); Staphylococcus aureus, ATCC 43300 / MRSA, cefoxitin Etest, Reference (ATCC 43300), SCCmec type II, read-out: MIC): 128 µg/mL (≈ 299 µM)
MIC (S. aureus (MRSA); Staphylococcus aureus, ATCC 43300 / MRSA, cefoxitin, strain 39, MRSA ATCC 43300, SCCmec II, read-out: MIC Etest): 128 µg/mL (≈ 299 µM)
MIC (S. aureus (MRSA); Staphylococcus aureus, MRSA / NCTC 10422, cefoxitin Etest, Reference (NCTC10422), SCCmec type Ib, read-out: MIC): ≥ 256 µg/mL
MIC (S. aureus (MRSA); Staphylococcus aureus, MRSA / USA300, cefoxitin Etest, Reference (USA300), SCCmec type IV, read-out: MIC): 48 µg/mL (≈ 112 µM)
MIC (S. aureus (MRSA); Staphylococcus aureus, MRSA / USA300, cefoxitin, strain 886, MRSA USA300, SCCmec IV, read-out: MIC Etest): 48 µg/mL (≈ 112 µM)
MIC (S. aureus (MRSA); Staphylococcus aureus, MRSA / USA500, cefoxitin Etest, Reference (USA500), SCCmec type IV, read-out: MIC): 48 µg/mL (≈ 112 µM)
MIC (S. aureus (MRSA); Staphylococcus aureus, MRSA, cefoxitin Etest, Reference (Clinical COL), SCCmec type I, read-out: MIC): ≥ 256 µg/mL
MIC (S. aureus (MRSA); Staphylococcus aureus, MRSA, cefoxitin Etest, Reference (Clinical EU), SCCmec type Ia, read-out: MIC): ≥ 256 µg/mL
MIC (S. aureus (MRSA); Staphylococcus aureus, MRSA, cefoxitin Etest, Reference (DK, SSI), SCCmec type IIIa, read-out: MIC): ≥ 256 µg/mL
MIC (S. aureus (MRSA); Staphylococcus aureus, MRSA, cefoxitin Etest, Reference (DK, SSI), SCCmec type V, read-out: MIC): 12 µg/mL (≈ 28.1 µM)
MIC (S. aureus (MRSA); Staphylococcus aureus, MRSA, cefoxitin, strain 9, MRSA EU, SCCmec I, read-out: MIC Etest): ≥ 256 µg/mL
MIC (S. aureus (MRSA); Staphylococcus aureus, MRSA, cefoxitin, strain 11, MRSA EU, SCCmec II, read-out: MIC Etest): ≥ 256 µg/mL
MIC (S. aureus (MRSA); Staphylococcus aureus, MRSA, cefoxitin, strain 13, MRSA, SCCmec IIIa, read-out: MIC Etest): ≥ 256 µg/mL
MIC (S. aureus (MRSA); Staphylococcus aureus, MRSA, cefoxitin, strain 306, MRSA DK, SCCmec V, read-out: MIC Etest): 12 µg/mL (≈ 28.1 µM)
MIC (S. aureus (MRSA); Staphylococcus aureus, MRSA, cefoxitin, strain 320, MRSA clinical DK, SCCmec IV, read-out: MIC Etest): ≥ 256 µg/mL
MIC (S. aureus (MRSA); Staphylococcus aureus, MRSA, cefoxitin, strain 1468, MRSA COL, SCCmec I, read-out: MIC Etest): ≥ 256 µg/mL
MIC (S. aureus (MRSA); cefoxitin Etest, strain 2, MRSA, Reference (ATCC 33591), type III): ≧256
MIC (S. aureus (MRSA); cefoxitin Etest, strain 9, MRSA, Reference EU, type I): ≧256
MIC (S. aureus (MRSA); cefoxitin Etest, strain 10, MRSA, Reference EU, type Ia): ≧256
MIC (S. aureus (MRSA); cefoxitin Etest, strain 11, MRSA, Reference EU, type II): ≧256
MIC (S. aureus (MRSA); cefoxitin Etest, strain 12, MRSA, Reference EU, type III): ≧256
MIC (S. aureus (MRSA); cefoxitin Etest, strain 13, MRSA, Reference EU, type IIIa): ≧256
MIC (S. aureus (MRSA); cefoxitin Etest, strain 15, MRSA, Clinical DK, type IV/ST80): 48 µg/mL (≈ 112 µM)
MIC (S. aureus (MRSA); cefoxitin Etest, strain 39, MRSA, Reference (ATCC 43300), type II (EVIGENE)): 128 µg/mL (≈ 299 µM)
MIC (S. aureus (MRSA); cefoxitin Etest, strain 295, MRSA, Reference DK, type IA): ≧256
MIC (S. aureus (MRSA); cefoxitin Etest, strain 297, MRSA, Reference DK, type IA, EVIGENE IV): 48 µg/mL (≈ 112 µM)
MIC (S. aureus (MRSA); cefoxitin Etest, strain 298, MRSA, Reference DK, type II): ≧256
MIC (S. aureus (MRSA); cefoxitin Etest, strain 299, MRSA, Reference DK, type II): ≧256
MIC (S. aureus (MRSA); cefoxitin Etest, strain 300, MRSA, Reference DK, type II): ≧256
MIC (S. aureus (MRSA); cefoxitin Etest, strain 302, MRSA, Reference DK, type IIIA): ≧256
MIC (S. aureus (MRSA); cefoxitin Etest, strain 303, MRSA, Reference DK, type III): ≧256
MIC (S. aureus (MRSA); cefoxitin Etest, strain 304, MRSA, Reference DK, type IV): 48 µg/mL (≈ 112 µM)
MIC (S. aureus (MRSA); cefoxitin Etest, strain 305, MRSA, Reference DK, type III): ≧256
MIC (S. aureus (MRSA); cefoxitin Etest, strain 306, MRSA, Reference DK, type V): 12 µg/mL (≈ 28.1 µM)
MIC (S. aureus (MRSA); cefoxitin Etest, strain 307, MRSA, Reference DK, type IV): 48 µg/mL (≈ 112 µM)
MIC (S. aureus (MRSA); cefoxitin Etest, strain 320, MRSA, Clinical DK, type IV (EVIGENE)): ≧256
MIC (S. aureus (MRSA); cefoxitin Etest, strain 321, MRSA, Clinical DK, type V (EVIGENE)): 96 µg/mL (≈ 225 µM)
MIC (S. aureus (MRSA); cefoxitin Etest, strain 460, MRSA, Reference, Tokyo, type V): 12 µg/mL (≈ 28.1 µM)
MIC (S. aureus (MRSA); cefoxitin Etest, strain 463, MRSA, Reference (NCTC10422), type Ib): ≧256
MIC (S. aureus (MRSA); cefoxitin Etest, strain 557, MRSA, Reference (USA300), type IV): 64 µg/mL (≈ 150 µM)
MIC (S. aureus (MRSA); cefoxitin Etest, strain 559, MRSA, Reference (USA300), type IV): ≧256
MIC (S. aureus (MRSA); cefoxitin Etest, strain 560, MRSA, Reference (USA500), type IV): 48 µg/mL (≈ 112 µM)
MIC (S. aureus (MRSA); cefoxitin Etest, strain 797, MRSA, Clinical DK, type II (EVIGENE)): 64 µg/mL (≈ 150 µM)
MIC (S. aureus (MRSA); cefoxitin Etest, strain 801, MRSA, Clinical DK, type II (EVIGENE)): ≧256
MIC (S. aureus (MRSA); cefoxitin Etest, strain 812, MRSA, Clinical DK, type II (EVIGENE)): ≧256
MIC (S. aureus (MRSA); cefoxitin Etest, strain 886, MRSA, Reference (FPR3757, USA300), type IV): 48 µg/mL (≈ 112 µM)
MIC (S. aureus (MRSA); cefoxitin Etest, strain 920, MRSA, Clinical DK, type I (EVIGENE)): ≧256
MIC (S. aureus (MRSA); cefoxitin Etest, strain 924, MRSA, Clinical DK, type IV (EVIGENE)): 96 µg/mL (≈ 225 µM)
MIC (S. aureus (MRSA); cefoxitin Etest, strain 926, MRSA, Clinical DK, type IV (EVIGENE)): 48 µg/mL (≈ 112 µM)
MIC (S. aureus (MRSA); cefoxitin Etest, strain 927, MRSA, Clinical DK, type IV): 24 µg/mL (≈ 56.1 µM)
MIC (S. aureus (MRSA); cefoxitin Etest, strain 931, MRSA, Clinical DK, type III (EVIGENE)): ≧256
MIC (S. aureus (MRSA); cefoxitin Etest, strain 1184, MRSA, Reference (ATCC BAA-1708), type II (EVIGENE)): 96 µg/mL (≈ 225 µM)
MIC (S. aureus (MRSA); cefoxitin Etest, strain 1468, MRSA, Reference (COL), type I): ≧256
MIC (S. aureus (MSSA); Staphylococcus aureus, ATCC 11632 / MSSA, cefoxitin Etest, MSSA Reference (ATCC 11632), read-out: MIC): 3 µg/mL (≈ 7.02 µM)
MIC (S. aureus (MSSA); Staphylococcus aureus, ATCC 25923 / MSSA, cefoxitin Etest, MSSA Reference (ATCC 25923), read-out: MIC): 3 µg/mL (≈ 7.02 µM)
MIC (S. aureus (MSSA); Staphylococcus aureus, ATCC 25923 / MSSA, cefoxitin, strain 155, MSSA ATCC 25923, read-out: MIC Etest): 3 µg/mL (≈ 7.02 µM)
MIC (S. aureus (MSSA); Staphylococcus aureus, ATCC 29213 / MSSA, cefoxitin Etest, MSSA Reference (ATCC 29213), read-out: MIC): 4 µg/mL (≈ 9.36 µM)
MIC (S. aureus (MSSA); Staphylococcus aureus, ATCC 29213 / MSSA, cefoxitin, strain 156, MSSA ATCC 29213, read-out: MIC Etest): 4 µg/mL (≈ 9.36 µM)
MIC (S. aureus (MSSA); Staphylococcus aureus, cefoxitin, MSSA (n = 15), read-out: MIC Etest): 3 to 4 µg/mL (≈ 7.02 to 9.36 µM)
MIC (S. aureus (MSSA); cefoxitin Etest, strain 1, MSSA, Reference (ATCC 6538)): 3 µg/mL (≈ 7.02 µM)
MIC (S. aureus (MSSA); cefoxitin Etest, strain 21, MSSA, Clinical EU): 4 µg/mL (≈ 9.36 µM)
MIC (S. aureus (MSSA); cefoxitin Etest, strain 22, MSSA, Clinical DK): 4 µg/mL (≈ 9.36 µM)
MIC (S. aureus (MSSA); cefoxitin Etest, strain 23, MSSA, Clinical DK): 3 µg/mL (≈ 7.02 µM)
MIC (S. aureus (MSSA); cefoxitin Etest, strain 24, MSSA, Clinical DK): 4 µg/mL (≈ 9.36 µM)
MIC (S. aureus (MSSA); cefoxitin Etest, strain 26, MSSA, Clinical DK): 4 µg/mL (≈ 9.36 µM)
MIC (S. aureus (MSSA); cefoxitin Etest, strain 54, MSSA, Clinical EU): 4 µg/mL (≈ 9.36 µM)
MIC (S. aureus (MSSA); cefoxitin Etest, strain 117, MSSA, Reference (ATCC 11632)): 3 µg/mL (≈ 7.02 µM)
MIC (S. aureus (MSSA); cefoxitin Etest, strain 155, MSSA, Reference (ATCC 25923)): 3 µg/mL (≈ 7.02 µM)
MIC (S. aureus (MSSA); cefoxitin Etest, strain 156, MSSA, Reference (ATCC 29213)): 4 µg/mL (≈ 9.36 µM)
MIC (MR-CNS; strain 4, MR-CNS, S. epidermidis, Reference (ATCC 51625)): 32 µg/mL (≈ 74.9 µM)
MIC (MR-CNS; strain 154, MR-CNS, S. saccharolyticus, Reference (ATCC 14953)): ≧256
MIC (MR-CNS; strain 350, MR-CNS, S. epidermidis, Reference): ≧256
MIC (MR-CNS; strain 351, MR-CNS, S. warneri, Reference DK): 192 µg/mL (≈ 449 µM)
MIC (MR-CNS; strain 352, MR-CNS, S. epidermidis, Reference DK): 256 µg/mL (≈ 599 µM)
MIC (MR-CNS; strain 353, MR-CNS, S. hominis, Reference DK): 64 µg/mL (≈ 150 µM)
MIC (MR-CNS; strain 408, MR-CNS, Clinical DK): ≧256
MIC (MR-CNS; strain 412, MR-CNS, Clinical DK): ≧256
MIC (MR-CNS; strain 414, MR-CNS, Clinical DK): 256 µg/mL (≈ 599 µM)
MIC (MS-CNS; cefoxitin Etest, strain 629, MS-CNS, S. epidermidis, Reference (ATCC 14990)): 1.5 µg/mL (≈ 3.51 µM)
MIC (MS-CNS; cefoxitin, MS-CNS (n = 5), read-out: MIC Etest): 1.5 µg/mL (≈ 3.51 µM)
SMILES: CO[C@@]1(NC(=O)Cc2cccs2)C(=O)N2C(C(=O)O)=C(COC(N)=O)CS[C@@H]21 [cefoxitin]
